Source: patent US20260242843A1, “ASSAY SYSTEM FOR […] ANTIVIRAL AGENT USING INHIBITION OF VIRUS-DERIVED PROTEASE AS INDICATOR” (TOYAMA PREFECTURAL UNIVERSITY, priority 2023, published 2026)

How the values were obtained:
[1] = test system: IAPV protease; test: Measurement of IAPV protease activity using purified enzyme (fluorescent peptide substrate); assay type: biochemical, Israeli acute paralysis virus (IAPV); conditions: inhibitors at final concentration of 1 mM, pre-incubated at 37° C. for 1 hour; fluorescence in absence of inhibitors = 100%
Experimental: RNA was extracted from the midgut of virus-infected honey bees using ISOGEN II (Nippon Gene Co., Ltd.), and the extracted RNA was reverse-transcripted using PrimeScript RT reagent Kit (Takara) to obtain midgut-derived cDNA. Subsequently, the midgut-derived cDNA was subjected to PCR reaction (30 cycles of 98° C. for 30 seconds, 60° C. for 30 seconds, and 68° C. for 2 minutes) using KOD FX Neo (TOYOBO Co., Ltd.) with IAPV Protease Primer-F1 (SEQ ID NO: 59) and IAPV Protease Primer-R (SEQ ID NO: 60). As a result, a cDNA fragment of IAPV protease was obtained, consisting of the base sequence of SEQ ID NO: 57 encoding the amino acid sequence of SEQ ID NO: 58. The cDNA fragment of the IAPV protease was subjected to restriction enzyme treatment with BamHI and HindIII. The expression vector pET21a (Merck) was also subjected to restriction enzyme treatment with BamHI and HindIII. The restriction enzyme-treated cDNA fragment of the IAPV protease and the restriction enzyme-treated pET21a DNA fragment were subjected to a ligation reaction at 16° C. for 1 hour using Ligation High Ver. 2 (TOYOBO Co., Ltd.) to join the vector and the cDNA fragment, and the ligation product was used to transform E. coli. Colony PCR was performed, and an expression vector containing the cDNA fragment of the IAPV protease was obtained. E. coli Rosseta-gami B (Merck) was transformed with the expression vector of the IAPV protease. A preculture was prepared in 50 ml of LB medium containing ampicillin, followed by subculturing in 500 ml of LB medium containing ampicillin. Then, the culture was grown until the absorbance at 600 nm reached 0.5, at which point isopropyl β-D-thiogalactopyranoside (IPTG) was added to a final concentration of 1 mM. The culture was then incubated at 15° C. for 24 hours. The culture was centrifuged (8000 rpm, 10 minutes, 4° C.) to collect E. coli cells. The collected E. coli cells were dissolved in 10 ml of a sonication buffer (50 mM Tris-HCl, pH 8.0; 50 mM NaCl; 1 mM EDTA; 1 mM DTT), and disrupted by ultrasonic disruption (sonication). The disruption solution was centrifuged (12000 rpm, 10 minutes, 4° C.) to obtain a supernatant of this bacterial cell disruption solution. The IAPV protease was then purified from the resulting supernatant to yield a purified protein solution. Purification was carried out by cation exchange chromatography using HiPrep SP XL 16/10 (Cytiva) with a 20 mM Tris-HCl (pH 7.5) buffer and a 20 mM Tris-HCl (pH 7.5) buffer containing 1 M NaCl, and by gel filtration chromatography using HiLoad 16/600 Superdex 200 (Cytiva) with a 50 mM phosphate buffer (pH 7.0) containing 0.15 M NaCl.
As a substrate for the measurement of IAPV protease activity, either Dnp-PNDIV DVTMQK(Nma)-NH2 or Nma-[…] (Dnp)-NH2, in which a peptide was linked to a fluorescent substrate, was synthesized and used. When the activity measurement substrate is cleaved by the protease, it emits fluorescence. The activity measurement substrate was prepared at a concentration of 20 μM in an assay buffer (50 mM citric acid buffer, pH 6.0; 150 mM NaCl; 1 mM EDTA; 1 mM DTT). The purified protein solution of the IAPV protease obtained in Example 10 was used as the enzyme solution. 50 μl of the assay buffer containing the activity measurement substrate was mixed with 50 μl of the enzyme solution, and the mixture was reacted at 37° C. for 30 minutes in a 96-well black plate, in the presence or absence of various inhibitors listed in Table 4. Fluorescence intensity was then measured using a TECAN fluorescence plate reader (Tecan Japan Co., Ltd.) at an excitation wavelength of 340 nm and a fluorescence emission wavelength of 440 nm. The various inhibitors were prepared at a final concentration of 1 mM and pre-incubated at 37° C. for 1 hour prior to the enzymatic reaction.

[2] = test system: virus-infected honey bees; test: Suppression of individual honey bee mortality by agent administration (aseptic in vivo agent evaluation rearing method); conditions: for viability compared to the control group: 100 μM in 50% sucrose solution, virus-infected honey bee population No. 2, FIG. 15
Experimental: A new aseptic in vivo agent evaluation rearing method for honey bees was established. Incubators and rearing boxes were sterilized with 70% ethanol after cleaning. Each hive box was populated with 30 to 35 honey bees. The honey bees were fed with a 50% sucrose solution (aseptically dissolved in sterile water) and a 50% sucrose solution containing pollen dissolved therein. The rearing temperature was maintained at 30° C. The 50% sucrose solutions were replaced daily, and the number of individual honey bees was measured at each replacement. Agents were administered dissolved in the 50% sucrose solutions. At the time when the viability had decreased to 50% or less of the initial level, total RNA was collected from the surviving individuals, and histochemical analyses were performed on the midgut and other tissues. Pharmacological analyses were conducted using the collected RNA, tissues, and blood.
E-64 ([(2S,3S)-3-carboxyoxirane-2-carbonyl]-L-leucine (4-guanidinobutyl)amide hemihydrate, manufactured by PEPTIDE INSTITUTE, INC.) was dissolved in a 50% sucrose solution at concentrations of 200 μM, 100 μM, and 50 μM. The resulting solutions were administered to honey bees in the honey bee populations Nos. 2 and 5, in which viral infection had been observed. Only 50% sucrose was administered to a control group (None). The E-64-containing solutions were replaced daily, and changes in the number of individual honey bees were measured at each replacement. FIGS. 9 and 10 show the results. Rearing was conducted using the aseptic in vivo agent evaluation rearing method, which has been described above.
E-64c (manufactured by PEPTIDE INSTITUTE, INC.) or E-64d (manufactured by PEPTIDE INSTITUTE, INC.) was dissolved in a 50% sucrose solution at a concentration of 100 μM. The resulting solutions were administered to honey bees in the honey bee population No. 2, in which viral infection had been observed. […] The solution containing E-64c or E-64d was replaced daily, and changes in the number of individual honey bees were measured at each replacement. […]

[3] = test system: fusion protein of Maltose Binding Protein (MBP)-IAPV protease; test: IAPV protease activity measurement using crude enzyme solution of expressed MBP-IAPV protease fusion protein; assay type: biochemical, Israeli acute paralysis virus (IAPV); conditions: in the presence of E-64, absence of E-64 = 100%
Experimental: Midgut-derived cDNA was obtained from virus-infected honey bees in the same manner as in Example 10 and then subjected to PCR reaction (30 cycles of 98° C. for 30 seconds, 60° C. for 30 seconds, and 68° C. for 2 minutes) using KOD FX Neo (TOYOBO Co., Ltd.) with IAPV Protease Primer-F2 (SEQ ID NO: 61) and IAPV Protease Primer-R (SEQ ID NO: 60). As a result, a cDNA fragment of IAPV protease was obtained, consisting of the base sequence of SEQ ID NO: 57 encoding the amino acid sequence of SEQ ID NO: 58. The cDNA fragment of the IAPV protease was subjected to restriction enzyme treatment with BamHI and HindIII. […] Then, the culture was grown until the absorbance at 600 nm reached 0.5, at which point IPTG was added to a final concentration of 1 mM. […]
Subsequently, using a crude enzyme solution of the expressed fusion protein of IAPV protease as the enzyme solution, the IAPV protease activity was measured using the same method as in Example 11, in the presence or absence of E-64.
The fluorescence intensity measured in the absence of E-64 was reduced by the addition of E-64. When the fluorescence intensity measured in the absence of E-64 is defined as 100% relative activity, the relative activity of IAPV protease calculated from the fluorescence intensity measured in the presence of E-64 was 9% (FIG. 14). […]

[4] = test system: virus-infected honey bees; test: Recovery from intestinal tract damage in honey bees (BPB administration test); assay type: in vivo; conditions: E-64 100 μM in 50% sucrose, reared 10 days; BPB 10 mg/ml for 24 hours; FIG. 13
Experimental: Virus-infected and uninfected honey bees were reared for 10 days while receiving 50% sucrose. During the rearing period, Bromophenol Blue (BPB) (FUJIFILM Wako Pure Chemical Corporation) was dissolved in a 50% sucrose solution at a concentration of 10 mg/ml and administered to the virus-infected and uninfected honey bees for 24 hours. When the viability of the virus-infected group had decreased to approximately 50%, relative to the number of individual honey bees before rearing set to 100%, BPB was administered to each group of honey bees. After BPB administration, blood was collected from honey bees (≥30 individuals), and the concentration of BPB in the blood was measured by absorbance at 500 nm using a microvolume spectrophotometer, NanoDrop One (ThermoFisher Scientific).
Virus-infected honey bees were divided into a control group (None) to which 50% sucrose was administered, and an administered group (E-64) to which a solution of E-64 (PEPTIDE INSTITUTE, INC.) dissolved at 100 μM in 50% sucrose was administered. The honey bees were reared for 10 days. […] After BPB administration, blood was collected from honey bees (≥30 individuals), and the concentration of BPB in the blood was measured by absorbance at 500 nm using a microvolume spectrophotometer, NanoDrop One (ThermoFisher Scientific).

Molecule	Relative Activity (%) of IAPV protease [1] [%]	other results
CCCNC(=O)[C@H]1O[C@@H]1C(=O)N[C@H](C(=O)N1CCC[C@H]1C(=O)OC)[C@@H](C)CC [CA074 methyl ester, [(2S,3S)-3-propylcarbamoyloxirane-2-carbonyl]-L-isoleucyl-L-proline methyl ester]	32	–
CCCNC(=O)[C@H]1O[C@@H]1C(=O)N[C@H](C(=O)N1CCC[C@H]1C(=O)O)[C@@H](C)CC [CA074, [(2S,3S)-3-propylcarbamoyloxirane-2-carbonyl]-L-isoleucyl-L-proline]	4	–
CC(C)CCNC(=O)[C@H](CC(C)C)NC(=O)[C@H]1O[C@@H]1C(=O)O [E-64c, [(2S,3S)-3-carboxyoxirane-2-carbonyl]-L-leucine (3-methylbutyl)amide]	22	viability compared to the control group [2]: higher viability compared to the control group
CCOC(=O)[C@H]1O[C@@H]1C(=O)N[C@@H](CC(C)C)C(=O)NCCC(C)C [E-64d, [(2S,3S)-3-ethoxycarbonyloxirane-2-carbonyl]-L-leucine (3-methylbutyl)amide]	23	viability compared to the control group [2]: higher viability compared to the control group
CCOC(=O)[C@H]1O[C@@H]1C(=O)N[C@@H](CC(C)C)C(=O)NCCc1ccc(O)cc1 [JPM-OEt]	17	–
O=C(O)c1cc2ccccc2s1 [TNCA, benzo[b]thiophene-2-carboxylic acid]	71	–
O=C(NC1CC1)C(=O)C(Cc1ccccc1)NC(=O)[C@H]1CCC(=O)N1Cc1ccccc1 (some centres unmarked) [alicapistat]	22	–
Cc1nc(-c2ccccc2F)c(C(=O)NC(Cc2ccccc2)C(=O)C(N)=O)o1 (centres unmarked) [dazcapistat]	29	–
[(2S,3S)-3-carboxyoxirane-2-carbonyl]-L-leucine (4-guanidinobutyl)amide hemihydrate [E-64]	5	relative activity of IAPV protease [3]: 9%; individual honey bee mortality (viability) ([2]; E-64 at 200 μM, 100 μM, 50 μM in 50% sucrose solution, virus-infected honey bee populations Nos. 2 and 5, FIGS. 9 and 10): suppressed individual honey bee mortality; concentration of BPB in the blood (absorbance at 500 nm) [4]: reduced the concentration of BPB in the blood
